Molecules are shown by their SMILES.

PDHK1, sequence (Q15118 29-436): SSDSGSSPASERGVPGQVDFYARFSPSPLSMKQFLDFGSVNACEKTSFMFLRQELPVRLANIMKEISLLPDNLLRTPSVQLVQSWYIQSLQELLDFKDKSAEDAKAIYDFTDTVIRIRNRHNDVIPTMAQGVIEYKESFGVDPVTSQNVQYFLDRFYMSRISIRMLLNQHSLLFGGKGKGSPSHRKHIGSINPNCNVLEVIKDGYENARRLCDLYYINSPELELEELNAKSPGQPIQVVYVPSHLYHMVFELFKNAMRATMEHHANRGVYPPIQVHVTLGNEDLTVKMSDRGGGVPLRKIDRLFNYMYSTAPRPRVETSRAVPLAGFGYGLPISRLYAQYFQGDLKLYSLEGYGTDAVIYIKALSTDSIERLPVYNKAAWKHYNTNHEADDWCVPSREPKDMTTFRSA

In one assay the target is PDHK1 (Homo sapiens (Human), UniProt Q15118). The experiment in a line: PDHK1 enzymatic assay (AlphaScreen, phosphorylation of PDHE1 S293). Type of assay: biochemical. The conditions noted are these: 1 nM PDHK1, 25 nM PDHE1, 20 μM ATP, 30° C. for 45 minutes. The text has this:
Pyruvate dehydrogenase complex (PDHc) is an enzyme that catalyzes the reaction of pyruvate and a lipoamide to give the acetylated dihydrolipoamide and carbon dioxide. PDHc has three subunits E1, E2 and E3. E1 has 3 serine phosphorylation sites S293, S232, S300. If E1 was phosphorylated, PDH will be inactivated. PDHK can phosphorylate PDH protein (also named PDHE1) in PDH complex (PDC) to inactivate it.
A general note: Alpha assays give light when donor and acceptor beads are brought close together.
For `CCNc1cc(F)cc2c1NC(=O)C2(C)N1C[C@@H](C)C[C@@H](Nc2ccc(C#N)nc2)C1` (stereo partly drawn) [Example 47, 5-[[(3R,5S)-1-[7-(ethylamino)-5-fluoro-3-methyl-2-oxo-indolin-3-yl]-5-methyl-3-piperidyl]amino]pyridine-2-carbonitrile], the “Enzymatic IC50 against PDHK1” value was determined as 0.019 µg/mL.

On to `CCNc1cc(F)cc2c1NC(=O)C2(C)N1CCCC(NC(=O)C2CC3(C2)CN(C#N)C3)C1` (stereo in doubt) [Example 37, 2-cyano-N-[(3R)-1-[7-(ethylamino)-5-fluoro-3-methyl-2-oxo-indolin-3-yl]-3-piperidyl]-2-azaspiro[3.3]heptane-6-carboxamide], for which the “Enzymatic IC50 against PDHK1” value amounted to 0.039 µg/mL.

For `CCNc1cc(F)cc2c1NC(=O)C2(C)N1CCC[C@H](Nc2ccc(C(=O)O)nc2)C1` (stereo partly drawn) [Example 10, 5-[[(3S)-1-[7-(ethylamino)-5-fluoro-3-methyl-2-oxo-indolin-3-yl]-3-piperidyl]amino]pyridine-2-carboxylic acid], the “Enzymatic IC50 against PDHK1” value turned out to be 0.059 µg/mL.

Consider `CCNc1cc(F)cc2c1NC(=O)C2(C)N1CCC[C@@H](Nc2cnc(C#N)nc2)C1` (stereo partly drawn) [Example 17, 5-[[(3R)-1-[7-(ethylamino)-5-fluoro-3-methyl-2-oxo-indolin-3-yl]-3-piperidyl]amino]pyrimidine-2-carbonitrile], for which the “Enzymatic IC50 against PDHK1” value worked out at 0.012 µg/mL.

For the compound `CCNc1cc(F)cc2c1NC(=O)C2(C)N1CCC[C@@H](Nc2cnc(C#N)cn2)C1` (stereo partly drawn) [Example 15, 5-[[(3R)-1-[7-(ethylamino)-5-fluoro-3-methyl-2-oxo-indolin-3-yl]-3-piperidyl]amino]pyrazine-2-carbonitrile], the “Enzymatic IC50 against PDHK1” value was 0.060 µg/mL.

With `CCNc1cc(F)cc2c1NC(=O)[C@]2(C)N1CCC[C@@H](Oc2ccc(S(=O)(=O)F)cc2)C1` [Example 3A, 4-[[(3R)-1-[(3R)-7-(ethylamino)-5-fluoro-3-methyl-2-oxo-indolin-3-yl]-3-piperidyl]oxy]benzenesulfonyl fluoride], the “Enzymatic IC50 against PDHK1” value is 0.036 µg/mL.

For `C=CS(=O)(=O)c1ccc(N[C@@H]2CCCN(C3(C)C(=O)Nc4c(NCC)cc(F)cc43)C2)cc1` (stereo partly drawn) [Example 34, 7-(ethylamino)-5-fluoro-3-methyl-3-[(3R)-3-(4-vinylsulfonylanilino)-1-piperidyl]indolin-2-one], the “Enzymatic IC50 against PDHK1” value was 0.032 µg/mL.

Consider `CCNc1cc(F)cc2c1NC(=O)C2(C)N1CCC[C@@H](Nc2cccc(OS(=O)(=O)F)c2)C1` (stereo partly drawn) [Example 31, 7-(ethylamino)-5-fluoro-3-methyl-2-oxo-3-[(3R)-3-(3-fluorosulfonyloxyanilino)-1-piperidyl]indoline], for which the “Enzymatic IC50 against PDHK1” value came to 0.197 µg/mL.

Turning to `CCNc1cc(F)cc2c1NC(=O)C2(C)N1CC[C@H](c2ccccc2Oc2ccc(C#N)cc2)[C@@H](NC(C)=O)C1` (stereo partly drawn) [Example 58, N-[(3R,4R)-4-[2-(4-cyanophenoxy)phenyl]-1-[7-(ethylamino)-5-fluoro-3-methyl-2-oxo-indolin-3-yl]-3-piperidyl]acetamide], the “Enzymatic IC50 against PDHK1” value came to 0.03 µg/mL.

As to `CCNc1cc(F)cc2c1NC(=O)C2(C)N1CC[C@H](c2ccccc2)[C@@H](NC(=O)C2CN(C#N)C2)C1` (stereo partly drawn) [Example 54, 1-cyano-N-[(3R,4R)-1-[7-(ethylamino)-5-fluoro-3-methyl-2-oxo-indolin-3-yl]-4-phenyl-3-piperidyl]azetidine-3-carboxamide], the “Enzymatic IC50 against PDHK1” value turned out to be 0.009 µg/mL.

With `CCNc1cc(F)cc2c1NC(=O)C2(C)N1CCC[C@@H](Nc2ccc(O)nc2)C1` (stereo partly drawn) [Example 21, 7-(ethylamino)-5-fluoro-3-[(3R)-3-[(6-hydroxy-3-pyridyl)amino]-1-piperidyl]-3-methyl-indolin-2-one], the “Enzymatic IC50 against PDHK1” value is 0.037 µg/mL.

Regarding `CCNc1cc(F)cc2c1NC(=O)C2(C)N1CCC[C@@H](Nc2ccc(C#N)nn2)C1` (stereo partly drawn) [Example 16, 6-[[(3R)-1-[7-(ethylamino)-5-fluoro-3-methyl-2-oxo-indolin-3-yl]-3-piperidyl]amino]pyridazine-3-carbonitrile], the “Enzymatic IC50 against PDHK1” value was determined as 0.047 µg/mL.

For the compound `CCNc1cc(F)cc2c1NC(=O)C2(C)N1CCC[C@@H](Nc2ccc(C(=O)CO)cc2)C1` (stereo partly drawn) [Example 19, 7-(ethylamino)-5-fluoro-3-[(3R)-3-[4-(2-hydroxyacetyl)anilino]-1-piperidyl]-3-methyl-indolin-2-one], the “Enzymatic IC50 against PDHK1” value worked out at 0.016 µg/mL.

With `CCNc1cc(F)cc2c1NC(=O)C2(C)N1CCC[C@@H](Nc2ccc(CO)nc2)C1` (stereo partly drawn) [Example 18, 7-(ethylamino)-5-fluoro-3-[(3R)-3-[[6-(hydroxymethyl)-3-pyridyl]amino]-1-piperidyl]-3-methyl-indolin-2-one], the “Enzymatic IC50 against PDHK1” value amounted to 0.059 µg/mL.

Regarding `CCNc1cc(F)cc2c1NC(=O)C2(C)N1CCC[C@@H](NC(=O)C2CCS(=O)(=O)CC2)C1` (stereo partly drawn) [Example 36, N-[(3R)-1-[7-(ethylamino)-5-fluoro-3-methyl-2-oxo-indolin-3-yl]-3-piperidyl]-1,1-dioxo-thiane-4-carboxamide], the “Enzymatic IC50 against PDHK1” value turned out to be 0.047 µg/mL.

As to `CCNc1cc(F)cc2c1NC(=O)C2(C)N1CCC[C@@H](Nc2ccc(OS(=O)(=O)F)nc2)C1` (stereo partly drawn) [Example 33, 7-(ethylamino)-5-fluoro-3-methyl-2-oxo-3-[(3R)-3-[(6-fluorosulfonyloxy-3-pyridyl)amino]-1-piperidyl]indoline], the “Enzymatic IC50 against PDHK1” value came out at 0.068 µg/mL.

The assay is the same for the next values; noted with them: 1 nM PDHK1, 25 nM PDHE1, 20 μM ATP, 30° C. for 45 minutes; read-out: Enzymatic IC50 against PDHK1 (converted).
For the compound `CCNc1cc(F)cc2c1NC(=O)[C@@]2(C)N1CC[C@@H](c2ccccc2)[C@@H](C(N)=O)C1` [Example 59B, (3R,4R)-1-[(3S)-7-(ethylamino)-5-fluoro-3-methyl-2-oxo-indolin-3-yl]-4-phenyl-piperidine-3-carboxamide], the half-inhibitory concentration (IC50) (usually the concentration that inhibits the measured activity by half) is 17.1 nM.

`CCNc1cc(F)cc2c1NC(=O)[C@@]2(C)N1CCC[C@@H](Oc2ccc(S(=O)(=O)F)c(OC)c2)C1` [Example 4B, 4-[[(3R)-1-[(3S)-7-(ethylamino)-5-fluoro-3-methyl-2-oxo-indolin-3-yl]-3-piperidyl]oxy]-2-methoxy-benzenesulfonyl fluoride]: the IC50 is 109 nM.

On to `CCNc1cc(F)cc2c1NC(=O)[C@@]2(C)N1CCC[C@@H](Oc2ccc(C(=O)O)c(Cl)c2)C1` [Example 1B, 2-chloro-4-[[(3R)-1-[(3S)-7-(ethylamino)-5-fluoro-3-methyl-2-oxo-indolin-3-yl]-3-piperidyl]oxy]benzoic acid], for which the IC50 was 15.2 nM.

For the compound `CCNc1cc(F)cc2c1NC(=O)[C@@]2(C)N1CC[C@@H](c2ccccc2)[C@@H](C(=O)NC)C1` [Example 60B, (3R,4R)-1-[(3S)-7-(ethylamino)-5-fluoro-3-methyl-2-oxo-indolin-3-yl]-N-methyl-4-phenyl-piperidine-3-carboxamide], the half-maximal inhibitory concentration (IC50) is 21.2 nM.

These data come from patent US20240140933A1, “OXOINDOLINE COMPOUND FOR THE TREATMENT OF INFLAMMATORY DISEASES OR CANCER” (Hoffmann-La Roche Inc., priority 2021, published 2024).
